Experimental data from the supplement of paper PMC10307832.

Assays:
Experiment in all cases: relative viability (nuclei count vs DMSO), 5 days (fraction); higher = more cells survive
[1] = compound: C1=CC2=NC=CN=C2C=C1/C=C/3\C(=O)NC(=O)S3 + Cc1nc(NC(=O)N2CCC[C@H]2C(N)=O)sc1-c1ccnc(C(C)(C)C(F)(F)F)c1 [Alpelisib] (partner 2 µM)
Method in brief: (§1)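 One day after seeding in 1536-well plates, lung cancer cell lines were dosed by pin tool. Dosing was either single-drug or a fixed anchor-drug dose plus five library-drug doses (not always all listed) in √10 steps. After 5 days, nuclei were stained in one fix-and-stain step and counted on 4× images, and relative viability is the nuclei count of treated wells over that of vehicle wells, given as the median of duplicate plates.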

BGJ398 + Pictilisib = compound: CCN1CCN(c2ccc(Nc3cc(N(C)C(=O)Nc4c(Cl)c(OC)cc(OC)c4Cl)ncn3)cc2)CC1 [BGJ398] + CS(=O)(=O)N1CCN(Cc2cc3nc(-c4cccc5[nH]ncc45)nc(N4CCOCC4)c3s2)CC1 [Pictilisib] (partner 1 µM)
Method in brief: as §1

BGJ398 + Pemetrexed = compound: CCN1CCN(c2ccc(Nc3cc(N(C)C(=O)Nc4c(Cl)c(OC)cc(OC)c4Cl)ncn3)cc2)CC1 [BGJ398] + Nc1nc2[nH]cc(CCc3ccc(C(=O)N[C@@H](CCC(=O)O)C(=O)O)cc3)c2c(=O)[nH]1 [Pemetrexed] (partner 0.2 µM)
Method in brief: as §1

[2] = compound: C1=CC2=NC=CN=C2C=C1/C=C/3\C(=O)NC(=O)S3 + CC(=O)c1c(C)c2cnc(Nc3ccc(N4CCNCC4)cn3)nc2n(C2CCCC2)c1=O [Palbociclib] (partner 0.5 µM)
Method in brief: as §1

Cell Line | relative viability ([1]; first compound 0.02 µM) | relative viability ([1]; first compound 0.06325 µM) | relative viability ([1]; first compound 0.2 µM) | relative viability ([1]; first compound 0.6325 µM) | relative viability ([1]; first compound 2 µM) | relative viability (BGJ398 + Pictilisib; first compound 0.01 µM) | relative viability (BGJ398 + Pictilisib; first compound 0.03162 µM) | relative viability (BGJ398 + Pictilisib; first compound 0.1 µM) | relative viability (BGJ398 + Pictilisib; first compound 0.3162 µM) | relative viability (BGJ398 + Pictilisib; first compound 1 µM) | relative viability (BGJ398 + Pemetrexed; first compound 0.01 µM) | relative viability (BGJ398 + Pemetrexed; first compound 0.03162 µM) | relative viability (BGJ398 + Pemetrexed; first compound 0.1 µM) | relative viability (BGJ398 + Pemetrexed; first compound 0.3162 µM) | relative viability (BGJ398 + Pemetrexed; first compound 1 µM) | relative viability ([2]; first compound 0.02 µM) | relative viability ([2]; first compound 0.06325 µM) | relative viability ([2]; first compound 0.2 µM) | relative viability ([2]; first compound 0.6325 µM) | relative viability ([2]; first compound 2 µM)
NCI-H1975 | 0.603 | 0.778 | 0.63 | 0.574 | 0.578 | 0.296 | 0.296 | 0.269 | 0.321 | 0.252 | 0.274 | 0.309 | 0.301 | 0.291 | 0.298 | 0.465 | 0.683 | 0.563 | 0.56 | 0.394
NCI-H1944 | 0.856 | 0.763 | 0.853 | 0.776 | 0.8 | 0.36 | 0.348 | 0.323 | 0.333 | 0.311 | 0.652 | 0.635 | 0.502 | 0.495 | 0.606 | 0.287 | 0.289 | 0.352 | 0.312 | 0.331
LU99A | 0.575 | 0.562 | 0.607 | 0.501 | 0.393 | 0.281 | 0.314 | 0.302 | 0.307 | 0.261 | 0.176 | 0.182 | 0.169 | 0.224 | 0.204 | 0.444 | 0.389 | 0.439 | 0.398 | 0.276
SW 1573 | 0.54 | 0.852 | 0.791 | 0.636 | 0.616 | 0.485 | 0.486 | 0.495 | 0.438 | 0.611 | 0.817 | 0.833 | 0.83 | 0.748 | 0.944 | 0.464 | 0.56 | 0.346 | 0.309 | 0.33
NCI-H2347 | 1.02 | 1.09 | 1.08 | 1.07 | 1.02 | 0.615 | 0.964 | 0.591 | 0.593 | 0.918 | 0.4 | 0.462 | 0.427 | 0.43 | 0.375 | 0.456 | 0.382 | 0.415 | 0.443 | 0.429
NCI-H2009 | 1.24 | 1.21 | 1.17 | 1.18 | 1.21 | 0.803 | 0.955 | 0.731 | 0.842 | 0.847 | 1.02 | 1.04 | 1.04 | 1.11 | 1.09 | 0.241 | 0.241 | 0.216 | 0.171 | 0.16
HCC-15 | 0.813 | 0.923 | 0.884 | 0.849 | 0.839 | 0.67 | 0.703 | 0.79 | 0.805 | 0.723 | 0.262 | 0.232 | 0.219 | 0.223 | 0.221 | 0.708 | 0.715 | 0.71 | 0.725 | 0.657
HCC-44 | 0.693 | 0.893 | 0.852 | 0.764 | 0.745 | 0.544 | 0.671 | 0.682 | 0.602 | 0.401 | 0.6 | 0.67 | 0.656 | 0.649 | 0.654 | 0.866 | 0.946 | 1.03 | 0.969 | 0.919
COR-L23 | 0.736 | 0.896 | 0.83 | 0.72 | 0.696 | 0.691 | 0.826 | 0.788 | 0.808 | 0.87 | 0.189 | 0.191 | 0.192 | 0.208 | 0.193 | 0.276 | 0.281 | 0.295 | 0.3 | 0.235
HCC-78 | 0.287 | 0.304 | 0.378 | 0.335 | 0.294 | 0.184 | 0.217 | 0.188 | 0.194 | 0.221 | 1.02 | 0.885 | 0.88 | 0.91 | 0.896 | 0.471 | 0.475 | 0.483 | 0.535 | 0.423
NCI-H2087 | 0.965 | 1.3 | 1.09 | 1.11 | 1.2 | 0.669 | 0.994 | 0.966 | 0.85 | 1.08 | 0.644 | 0.606 | 0.671 | 0.699 | 0.678 | 0.195 | 0.229 | 0.215 | 0.268 | 0.222
BEN | 1.07 | 0.877 | 1.22 | 0.911 | 1.09 | 0.491 | 0.609 | 0.534 | 0.478 | 0.473 | 0.703 | 0.812 | 0.751 | 0.749 | 0.606 | 0.491 | 0.422 | 0.492 | 0.475 | 0.448
LCLC-103H | 0.876 | 0.906 | 1.01 | 1.03 | 0.925 | 0.652 | 0.576 | 0.486 | 0.52 | 0.465 | 0.459 | 0.503 | 0.401 | 0.494 | 0.541 | 0.482 | 0.457 | 0.475 | 0.431 | 0.485
EKVX | 0.834 | 0.78 | 0.869 | 0.784 | 0.771 | 0.437 | 0.395 | 0.479 | 0.406 | 0.46 | 0.385 | 0.403 | 0.452 | 0.38 | 0.378 | 0.384 | 0.428 | 0.342 | 0.381 | 0.405
LXF-289 | 0.999 | 1.01 | 1.06 | 0.984 | 1.07 | 0.773 | 0.707 | 0.682 | 0.685 | 0.573 | 0.923 | 0.849 | 0.88 | 0.801 | 0.923 | 0.529 | 0.632 | 0.574 | 0.552 | 0.637
NCI-H650 | 1.08 | 1.04 | 1.06 | 1.1 | 1.02 | 0.87 | 0.943 | 0.867 | 0.858 | 0.868 | 0.988 | 0.931 | 0.995 | 0.956 | 0.974 | 0.346 | 0.336 | 0.36 | 0.344 | 0.275
